Structures are written as SMILES.

Experiment [1] deals with Fibroblast growth factor receptor 1 (Homo sapiens) (UniProt P11362). Kind of experiment: Inhibition of His tagged recombinant human FGFR1 cytoplasmic domain (308 to 731 residues) expressed in baculovirus at 500 nM by Z'-LYTE assay.
Experiment [2] has as its target cAMP-dependent protein kinase catalytic subunit alpha (Homo sapiens) (UniProt P17612). Kind of experiment: Inhibition of His tagged recombinant human PRKACA catalytic domain (1 to 351 residues) expressed in Escherichia coli at 500 nM by Z'-LYTE assay.
The target of experiment [3] is Tyrosine-protein kinase HCK (Homo sapiens) (UniProt P08631). Kind of experiment: Inhibition of recombinant full length human N-terminal GST-tagged HCK expressed in baculovirus at 500 nM by Z'-LYTE assay.
Experiment [4] deals with Dual specificity mitogen-activated protein kinase kinase 1 (Homo sapiens) (UniProt Q02750). Briefly: Inhibition of His tagged recombinant full length human MEK1 expressed in baculovirus at 500 nM by Z'-LYTE assay.
For experiment [5], the target named is Protein kinase C theta type (Homo sapiens) (UniProt Q04759). Briefly: Inhibition of His tagged recombinant full length human PRKCQ expressed in baculovirus at 500 nM by Z'-LYTE assay.
Experiment [6] concerns the target Tyrosine-protein kinase Fer (Homo sapiens) (UniProt P16591). Briefly: Inhibition of recombinant human GST-tagged FER (541 to 822 residues) expressed in baculovirus at 500 nM by Z'-LYTE assay- tagged.
The target of experiment [7] is Glycogen synthase kinase-3 beta (Homo sapiens) (UniProt P49841). Kind of experiment: Inhibition of His tagged recombinant full length human GSK3B expressed in baculovirus at 500 nM by Z'-LYTE assay.
The target of experiment [8] is Tyrosine-protein kinase SYK (Homo sapiens) (UniProt P43405). Kind of experiment: Inhibition of recombinant full length human N-terminal GST-tagged SYK expressed in baculovirus at 500 nM by Z'-LYTE assay.
For experiment [9], the target named is Platelet-derived growth factor receptor beta (Homo sapiens) (UniProt P09619). Kind of experiment: Inhibition of His tagged recombinant human PDGFRB cytoplasmic domain (558 to 1106 residues) expressed in baculovirus at 500 nM by Z'-LYTE assay.
Experiment [10] addresses Tyrosine-protein kinase Yes (Homo sapiens) (UniProt P07947). Briefly: Inhibition of GST tagged recombinant full length human YES1 expressed in baculovirus at 500 nM by Z'-LYTE assay.
Experiment [11] concerns the target T1, Ephrin type-B receptor 1 (Homo sapiens) (UniProt P54762).
T1 sequence (whole entry): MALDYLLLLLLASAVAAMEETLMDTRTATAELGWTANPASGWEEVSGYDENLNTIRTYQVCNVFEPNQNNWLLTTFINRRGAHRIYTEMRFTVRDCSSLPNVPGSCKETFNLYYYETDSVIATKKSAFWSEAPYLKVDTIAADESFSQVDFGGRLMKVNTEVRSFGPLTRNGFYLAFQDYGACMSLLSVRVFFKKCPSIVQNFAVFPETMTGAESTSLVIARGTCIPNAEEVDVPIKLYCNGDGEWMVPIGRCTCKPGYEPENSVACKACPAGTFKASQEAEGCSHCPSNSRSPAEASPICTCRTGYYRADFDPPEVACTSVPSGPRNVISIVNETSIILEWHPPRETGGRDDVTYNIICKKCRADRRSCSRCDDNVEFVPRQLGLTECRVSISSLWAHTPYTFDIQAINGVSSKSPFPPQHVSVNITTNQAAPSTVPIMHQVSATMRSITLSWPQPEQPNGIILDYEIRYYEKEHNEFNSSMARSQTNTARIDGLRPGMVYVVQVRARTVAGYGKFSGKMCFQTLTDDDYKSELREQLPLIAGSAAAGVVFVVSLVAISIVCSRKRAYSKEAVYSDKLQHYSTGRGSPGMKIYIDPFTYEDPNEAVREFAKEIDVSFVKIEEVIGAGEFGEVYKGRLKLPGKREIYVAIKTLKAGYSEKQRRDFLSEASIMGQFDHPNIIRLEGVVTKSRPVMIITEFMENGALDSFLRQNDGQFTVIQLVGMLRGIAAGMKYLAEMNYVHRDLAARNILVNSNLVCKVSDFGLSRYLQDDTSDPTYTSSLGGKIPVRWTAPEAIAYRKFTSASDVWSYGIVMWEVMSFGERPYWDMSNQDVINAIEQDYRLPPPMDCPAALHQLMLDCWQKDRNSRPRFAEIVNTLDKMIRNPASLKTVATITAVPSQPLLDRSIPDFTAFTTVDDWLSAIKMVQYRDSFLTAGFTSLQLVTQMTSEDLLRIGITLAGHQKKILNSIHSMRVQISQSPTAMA
Kind of experiment: Inhibition of GST tagged recombinant human EPHB1 cytoplasmic domain (613 to 881 residues) expressed in baculovirus at 500 nM by Z'-LYTE assay.

Sequence of Fibroblast growth factor receptor 1 (Homo sapiens) (P11362 22-822 limits assumed): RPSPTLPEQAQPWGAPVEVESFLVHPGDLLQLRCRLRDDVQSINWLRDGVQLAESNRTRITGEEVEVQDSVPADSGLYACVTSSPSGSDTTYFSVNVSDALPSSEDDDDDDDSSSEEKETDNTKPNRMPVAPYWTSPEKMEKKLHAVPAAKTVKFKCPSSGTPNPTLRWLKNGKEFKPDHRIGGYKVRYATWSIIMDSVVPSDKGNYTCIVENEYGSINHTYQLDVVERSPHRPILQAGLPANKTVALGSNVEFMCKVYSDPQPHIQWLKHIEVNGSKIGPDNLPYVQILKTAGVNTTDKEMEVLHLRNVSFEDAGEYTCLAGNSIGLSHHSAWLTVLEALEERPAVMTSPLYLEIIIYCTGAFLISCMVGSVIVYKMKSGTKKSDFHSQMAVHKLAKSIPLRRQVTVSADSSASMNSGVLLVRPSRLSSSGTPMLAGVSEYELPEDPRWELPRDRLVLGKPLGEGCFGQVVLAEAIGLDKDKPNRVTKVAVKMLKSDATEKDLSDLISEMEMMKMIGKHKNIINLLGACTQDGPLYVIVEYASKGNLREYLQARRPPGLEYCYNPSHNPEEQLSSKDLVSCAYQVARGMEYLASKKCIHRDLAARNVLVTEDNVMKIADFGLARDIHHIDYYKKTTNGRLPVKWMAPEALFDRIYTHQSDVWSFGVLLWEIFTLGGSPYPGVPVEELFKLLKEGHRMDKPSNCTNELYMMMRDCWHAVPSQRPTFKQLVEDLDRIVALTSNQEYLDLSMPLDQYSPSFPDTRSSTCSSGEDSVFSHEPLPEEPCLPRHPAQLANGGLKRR
Sequence of Protein kinase C theta type (Homo sapiens) (Q04759 whole entry, looked up, the tested form may be a part): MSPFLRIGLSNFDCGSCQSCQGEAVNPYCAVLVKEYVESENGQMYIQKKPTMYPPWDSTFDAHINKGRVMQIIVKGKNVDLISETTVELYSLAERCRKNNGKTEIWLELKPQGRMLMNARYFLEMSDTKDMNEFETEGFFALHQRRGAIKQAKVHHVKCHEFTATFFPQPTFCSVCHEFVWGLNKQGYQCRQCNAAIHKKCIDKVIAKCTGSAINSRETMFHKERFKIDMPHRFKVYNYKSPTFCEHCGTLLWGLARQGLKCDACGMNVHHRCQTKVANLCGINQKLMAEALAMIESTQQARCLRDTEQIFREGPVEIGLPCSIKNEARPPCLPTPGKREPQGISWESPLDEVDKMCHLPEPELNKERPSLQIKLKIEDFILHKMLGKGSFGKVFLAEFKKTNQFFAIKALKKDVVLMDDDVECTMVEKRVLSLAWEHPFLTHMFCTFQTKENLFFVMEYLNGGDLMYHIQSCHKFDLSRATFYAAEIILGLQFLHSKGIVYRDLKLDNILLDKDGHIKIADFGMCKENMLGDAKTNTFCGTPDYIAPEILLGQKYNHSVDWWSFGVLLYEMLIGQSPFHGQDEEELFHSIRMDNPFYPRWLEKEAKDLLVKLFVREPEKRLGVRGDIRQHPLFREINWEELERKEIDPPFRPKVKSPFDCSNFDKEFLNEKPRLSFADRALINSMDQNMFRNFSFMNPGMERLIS
Sequence of Glycogen synthase kinase-3 beta (Homo sapiens) (P49841 whole entry, looked up): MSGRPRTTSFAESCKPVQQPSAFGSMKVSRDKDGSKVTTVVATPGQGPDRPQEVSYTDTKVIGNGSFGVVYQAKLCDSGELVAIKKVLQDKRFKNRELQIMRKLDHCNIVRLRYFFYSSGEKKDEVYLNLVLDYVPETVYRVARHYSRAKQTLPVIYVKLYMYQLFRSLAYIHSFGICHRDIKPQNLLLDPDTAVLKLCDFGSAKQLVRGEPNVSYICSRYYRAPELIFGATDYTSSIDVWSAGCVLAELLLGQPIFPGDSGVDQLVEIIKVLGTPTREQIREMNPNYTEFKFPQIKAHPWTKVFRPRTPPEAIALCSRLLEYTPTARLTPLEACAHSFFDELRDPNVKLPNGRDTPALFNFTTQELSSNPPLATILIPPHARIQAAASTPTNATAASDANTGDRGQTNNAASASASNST
Sequence of Tyrosine-protein kinase Fer (Homo sapiens) (P16591 whole entry, looked up, the tested form may be a part): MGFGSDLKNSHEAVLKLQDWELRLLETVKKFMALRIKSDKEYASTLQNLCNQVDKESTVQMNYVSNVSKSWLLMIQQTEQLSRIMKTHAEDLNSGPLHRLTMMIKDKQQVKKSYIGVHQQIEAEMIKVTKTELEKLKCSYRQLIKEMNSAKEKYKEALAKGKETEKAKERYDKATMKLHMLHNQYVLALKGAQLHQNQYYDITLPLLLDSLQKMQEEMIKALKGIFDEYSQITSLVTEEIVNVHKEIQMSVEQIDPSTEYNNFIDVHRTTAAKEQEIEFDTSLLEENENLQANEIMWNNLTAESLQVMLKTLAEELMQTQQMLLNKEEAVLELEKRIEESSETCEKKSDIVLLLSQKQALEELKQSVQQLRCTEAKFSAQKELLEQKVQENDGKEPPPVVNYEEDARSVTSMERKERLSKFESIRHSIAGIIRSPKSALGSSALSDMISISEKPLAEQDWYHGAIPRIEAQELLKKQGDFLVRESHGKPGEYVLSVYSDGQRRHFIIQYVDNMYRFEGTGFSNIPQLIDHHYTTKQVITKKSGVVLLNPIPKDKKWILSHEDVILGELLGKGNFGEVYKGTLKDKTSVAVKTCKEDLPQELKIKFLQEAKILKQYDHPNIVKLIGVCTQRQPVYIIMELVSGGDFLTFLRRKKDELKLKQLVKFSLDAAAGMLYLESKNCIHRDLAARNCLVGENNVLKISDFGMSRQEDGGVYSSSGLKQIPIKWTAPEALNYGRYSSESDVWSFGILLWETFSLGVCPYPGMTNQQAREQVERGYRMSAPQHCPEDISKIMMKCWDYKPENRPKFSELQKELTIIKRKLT
Sequence of Tyrosine-protein kinase HCK (Homo sapiens) (P08631 2-526 limits assumed): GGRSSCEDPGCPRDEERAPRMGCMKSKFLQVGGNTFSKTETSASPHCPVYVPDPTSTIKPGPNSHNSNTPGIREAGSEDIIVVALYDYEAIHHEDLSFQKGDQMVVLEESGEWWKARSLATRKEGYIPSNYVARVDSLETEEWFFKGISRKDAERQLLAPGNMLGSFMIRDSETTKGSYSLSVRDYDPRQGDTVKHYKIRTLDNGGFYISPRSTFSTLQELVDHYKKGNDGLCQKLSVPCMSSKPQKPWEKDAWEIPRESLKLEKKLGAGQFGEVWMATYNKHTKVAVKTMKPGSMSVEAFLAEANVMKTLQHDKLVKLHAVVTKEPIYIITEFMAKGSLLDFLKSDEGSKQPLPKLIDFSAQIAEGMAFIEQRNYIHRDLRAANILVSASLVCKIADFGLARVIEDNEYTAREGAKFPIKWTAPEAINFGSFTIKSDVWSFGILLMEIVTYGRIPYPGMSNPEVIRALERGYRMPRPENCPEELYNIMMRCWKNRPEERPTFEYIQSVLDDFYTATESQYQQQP
Sequence of Platelet-derived growth factor receptor beta (Homo sapiens) (P09619 whole entry, the tested form may be a part): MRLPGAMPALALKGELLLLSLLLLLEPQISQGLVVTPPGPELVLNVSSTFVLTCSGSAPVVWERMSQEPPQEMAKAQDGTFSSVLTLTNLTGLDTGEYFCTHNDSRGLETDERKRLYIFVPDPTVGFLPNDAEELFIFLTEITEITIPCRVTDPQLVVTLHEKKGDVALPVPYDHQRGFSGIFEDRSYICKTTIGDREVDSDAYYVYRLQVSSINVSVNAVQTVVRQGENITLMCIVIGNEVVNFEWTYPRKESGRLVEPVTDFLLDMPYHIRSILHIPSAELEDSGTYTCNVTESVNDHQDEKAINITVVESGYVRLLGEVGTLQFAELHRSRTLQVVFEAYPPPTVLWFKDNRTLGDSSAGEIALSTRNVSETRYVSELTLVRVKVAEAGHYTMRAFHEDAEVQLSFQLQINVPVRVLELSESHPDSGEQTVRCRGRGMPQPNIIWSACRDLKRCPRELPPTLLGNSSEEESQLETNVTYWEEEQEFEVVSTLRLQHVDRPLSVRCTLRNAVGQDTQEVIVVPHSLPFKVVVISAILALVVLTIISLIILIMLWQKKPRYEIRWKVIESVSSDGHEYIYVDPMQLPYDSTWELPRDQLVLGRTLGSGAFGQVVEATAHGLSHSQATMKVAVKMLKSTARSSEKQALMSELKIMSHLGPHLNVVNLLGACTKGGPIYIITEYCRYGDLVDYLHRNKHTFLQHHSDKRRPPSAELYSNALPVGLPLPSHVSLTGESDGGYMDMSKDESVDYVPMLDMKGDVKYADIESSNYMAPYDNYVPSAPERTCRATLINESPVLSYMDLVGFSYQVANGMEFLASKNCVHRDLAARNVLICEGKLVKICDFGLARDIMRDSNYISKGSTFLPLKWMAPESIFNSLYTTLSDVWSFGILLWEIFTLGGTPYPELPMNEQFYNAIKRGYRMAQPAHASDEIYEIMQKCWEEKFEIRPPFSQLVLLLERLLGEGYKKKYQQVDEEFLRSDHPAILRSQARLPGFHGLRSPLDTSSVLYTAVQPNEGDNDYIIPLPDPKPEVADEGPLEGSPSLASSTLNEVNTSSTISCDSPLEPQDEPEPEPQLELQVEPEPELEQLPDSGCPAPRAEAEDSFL
Sequence of Dual specificity mitogen-activated protein kinase kinase 1 (Homo sapiens) (Q02750 whole entry): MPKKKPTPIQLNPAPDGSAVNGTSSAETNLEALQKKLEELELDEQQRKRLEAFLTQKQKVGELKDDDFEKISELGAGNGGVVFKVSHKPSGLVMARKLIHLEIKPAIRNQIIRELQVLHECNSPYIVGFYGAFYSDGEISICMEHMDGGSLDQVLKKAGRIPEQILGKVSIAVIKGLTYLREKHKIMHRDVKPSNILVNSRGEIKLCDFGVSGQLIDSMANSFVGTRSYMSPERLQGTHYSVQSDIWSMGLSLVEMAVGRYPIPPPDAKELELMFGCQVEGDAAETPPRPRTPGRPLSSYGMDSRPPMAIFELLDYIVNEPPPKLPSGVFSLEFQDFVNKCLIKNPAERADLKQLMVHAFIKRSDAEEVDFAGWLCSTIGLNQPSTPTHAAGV

Usually inhibition stands for the change of the read-out against control, counted positive when it falls. As to `C#Cc1cccc(Nc2ncnc3cc(OCCOC)c(OCCOC)cc23)c1`, the inhibition was -4% in experiment [1]; -10% in experiment [2]; 18% in [3]; 7% in experiment [4]; -4% in experiment [5]; -1% in experiment [6]. Also, the inhibition is -8% in experiment [7]; 14% in experiment [8]; -5% in experiment [9]; 29% in experiment [10]; 11% in [11].
For `C[C@@H](Nc1ncnc2oc(-c3ccc(NCCN(C)C)cc3)cc12)c1ccccc1`, the inhibition in [1] is 6%; in experiment [2], 8%; in experiment [3], 21%; in experiment [4], 10%; in experiment [5], 10%; in [6], 6%. In addition, the inhibition was 4% in experiment [7]; 8% in experiment [8]; 10% in experiment [9]; 51% in experiment [10]; 17% in experiment [11].
With `C[C@@H](Nc1ncnc2oc(-c3ccc(NCCN4CCCCC4)cc3)cc12)c1ccccc1`, the inhibition was found to be 6% in experiment [1]; 5% in experiment [2]; 20% in experiment [3]; 10% in experiment [4]; 7% in experiment [5]; 4% in [6]. Further, the inhibition in [7] came to 4%; in [8] it was 11%; in experiment [9] it was 5%; in experiment [10] it was 54%; in experiment [11], 17%.

For the origin of these results see ChEMBL document CHEMBL3856204, “Chiral 6-aryl-furo[2,3-d]pyrimidin-4-amines as EGFR inhibitors” (Eur J Med Chem, 2016).
